# Data reported in patent publication US6528049B2, “Bisexual attractants, aggregants and arrestants for adults and larvae of codling moth and other species of lepidoptera” (Trece, Inc., priority 1999, dated 2003).
# Tests used:
# male codling moth = assay: Pheromone preference paired-trap test: pheromone alone vs pheromone + HPV; type: in vivo, Cydia pomonella; conditions: for % Change (Ph+HPV/Phxl00) in Male CM Capture / Impact of HPV Blend on Pheromone Attractancy to Male CM / Male CM Capture with Pheromone + HPV Blend: ♂♂/trap/night ± SEM: Table 9; for Male CM Capture with Pheromone + HPV Blend: ♂♂/trap/night ± SEM / Male CM Captured, HPV + Pheromone Trap: ± SEM / Male CM Captured, HPV + Pheromone Trap ± SEM: 10 mg/red septum; for % of pheromone-alone capture (line under HPV + Pheromone value) / Male CM Captured, HPV + Pheromone Trap: ± SEM / Male CM Captured, HPV + Pheromone Trap ± SEM / Average % Change in ♂♂ CM Capture: Table 8; for Average % Change in ♂♂ CM Capture: average of four orchards
# Excerpt: Interaction of synthetic apple and pear odor blends, described above in Table 2, and their effect on the attractancy of synthetic pheromone to codling moth was also studied. For that purpose, series of paired-traps containing pheromone alone or pheromone in combination with synthetic host plant volatile blends were placed in walnut orchards.
# Interaction of individual synthetic host plant volatiles or blends on the attractiveness of synthetic male pheromone to male codling moth administered in paired traps with pheromone alone or with pheromone and attractant 10 mg/red septum was also studied.
# Pheromone traps (sticky wing traps, Trécé, Inc.,) were hung as pairs: a pheromone only baited-trap vs. a pheromone+HPV blend-baited trap. The two traps of a test pair were attached in close competitive proximity (120 cm apart) on a common hanger bar (PVC pipe). The paired-trap bars were hung 5-6 meters high on the outer canopies of trees. A single pair-trap was hung per tree and different replicate test trees were separated by five rows in a matrix through the orchard. Each pheromone trap was baited with ½ of a commercial pheromone-impregnated rubber septum (Trécé, Inc.). Septa were sectioned by a razor blade. The HPV blends evaporated from their own separate impregnated rubber septa containing 10 mg diluted in hexane/septum).
# Tests were conducted in a Harley English walnut orchard. Tests spanned the entire two year seasons April-October with traps checked, males sexed, counted and removed every 2-7 days. Significant effect on pheromone trap capture were judged by paired tests either T-test or a nonparametric test.
# codling moth = assay: Septa colour and loading dose trap study; type: in vivo, Cydia pomonella; set-up: ♂♂ ± SEM / ♀♀ ± SEM: unit not given here
# Protocol: Since there have been differences observed between traps containing gray, white or red septa, a study was performed to determine the significance of the specific septa and their effect on the increase or decrease of attractancy. […]
# [1] = 0.1 mg A, Gray Septa, High (high population conventional orchard)
# [2] = 0.1 mg A, Gray Septa, Low (low population organic orchard)
# [3] = 0.1 mg A, Red Septa, High (high population conventional orchard)
# [4] = 0.1 mg A, Red Septa, Low (low population organic orchard)
# [5] = 1.0 mg A, Gray Septa, High (high population conventional orchard)
# [6] = 1.0 mg A, Gray Septa, Low (low population organic orchard)
# [7] = 1.0 mg A, Red Septa, Low (low population organic orchard)
# [8] = 3 mg A, Gray Septa, High (high population conventional orchard)
# [9] = 3 mg A, Gray Septa, Low (low population organic orchard)
# [10] = 3 mg A, Red Septa, High (high population conventional orchard)
# [11] = 3 mg A, Red Septa, Low (low population organic orchard)
# [12] = 10 mg A, Gray Septa, High (high population conventional orchard)
# [13] = 10 mg A, Gray Septa, Low (low population organic orchard)
# [14] = 10 mg A, Red Septa, High (high population conventional orchard)
# [15] = 10 mg A, Red Septa, Low (low population organic orchard)
# [16] = 20 mg A, Gray Septa, High (high population conventional orchard)
# [17] = 20 mg A, Gray Septa, Low (low population organic orchard)
# [18] = 20 mg A, Red Septa, High (high population conventional orchard)
# [19] = 20 mg A, Red Septa, Low (low population organic orchard)
# [20] = Gray Septa, High (high population conventional orchard)
# [21] = Gray Septa, Low (low population organic orchard)
# [22] = Red Septa, High (high population conventional orchard)
# [23] = Red Septa, Low (low population organic orchard)
structure (smiles),measurement,setting,value
C=CC(=C)CCC=C(C)C [Myrcene],% Change (Ph+HPV/Phxl00) in Male CM Capture,male codling moth,84%
same,Impact of HPV Blend on Pheromone Attractancy to Male CM,male codling moth,No Effect
same,Male CM Capture with Pheromone + HPV Blend: ♂♂/trap/night ± SEM,male codling moth,1.03 ± 0.26 ♂♂/trap/night
C=C/C(C)=C/C/C=C(\C)CCC=C(C)C [alpha-Farnesene],% Change (Ph+HPV/Phxl00) in Male CM Capture,male codling moth,86%
same,Impact of HPV Blend on Pheromone Attractancy to Male CM,male codling moth,No Effect
same,Male CM Capture with Pheromone + HPV Blend: ♂♂/trap/night ± SEM,male codling moth,1.38 ± 0.39 ♂♂/trap/night
CCCCO [Butan-1-ol],% of pheromone-alone capture (line under HPV + Pheromone value),male codling moth; Orchard #1,101%
same,"Male CM Captured, HPV + Pheromone Trap: ± SEM",male codling moth; Orchard #1,0.74 ± 0.17 ♂♂/trap/night
same,% of pheromone-alone capture (line under HPV + Pheromone value),male codling moth; Orchard #2,117%
same,"Male CM Captured, HPV + Pheromone Trap ± SEM",male codling moth; Orchard #2,2.73 ± 0.56 ♂♂/trap/night
same,% of pheromone-alone capture (line under HPV + Pheromone value),male codling moth; Orchard #3,122%
same,"Male CM Captured, HPV + Pheromone Trap: ± SEM",male codling moth; Orchard #3,2.95 ± 0.43 ♂♂/trap/night
same,% of pheromone-alone capture (line under HPV + Pheromone value),male codling moth; Orchard #4,96%
same,"Male CM Captured, HPV + Pheromone Trap: ± SEM",male codling moth; Orchard #4,2.96 ± 0.62 ♂♂/trap/night
same,Average % Change in ♂♂ CM Capture,male codling moth,109%
CC(C)CCO [3-Methyl Butan-1-ol],% of pheromone-alone capture (line under HPV + Pheromone value),male codling moth; Orchard #1,118%
same,"Male CM Captured, HPV + Pheromone Trap: ± SEM",male codling moth; Orchard #1,1.29 ± 0.25 ♂♂/trap/night
same,% of pheromone-alone capture (line under HPV + Pheromone value),male codling moth; Orchard #2,86%
same,"Male CM Captured, HPV + Pheromone Trap ± SEM",male codling moth; Orchard #2,1.19 ± 0.22 ♂♂/trap/night
same,% of pheromone-alone capture (line under HPV + Pheromone value),male codling moth; Orchard #3,95%
same,"Male CM Captured, HPV + Pheromone Trap: ± SEM",male codling moth; Orchard #3,2.82 ± 0.56 ♂♂/trap/night
same,% of pheromone-alone capture (line under HPV + Pheromone value),male codling moth; Orchard #4,115%
same,"Male CM Captured, HPV + Pheromone Trap: ± SEM",male codling moth; Orchard #4,2.91 ± 0.49 ♂♂/trap/night
same,Average % Change in ♂♂ CM Capture,male codling moth,104%
C=C/C(C)=C/CC=C(C)C [(E)-β-Ocimene],% of pheromone-alone capture (line under HPV + Pheromone value),male codling moth; Orchard #1,135%
same,"Male CM Captured, HPV + Pheromone Trap: ± SEM",male codling moth; Orchard #1,1.40 ± 0.25 ♂♂/trap/night
same,% of pheromone-alone capture (line under HPV + Pheromone value),male codling moth; Orchard #2,114%
same,"Male CM Captured, HPV + Pheromone Trap ± SEM",male codling moth; Orchard #2,0.88 ± 0.17 ♂♂/trap/night
same,% of pheromone-alone capture (line under HPV + Pheromone value),male codling moth; Orchard #3,102%
same,"Male CM Captured, HPV + Pheromone Trap: ± SEM",male codling moth; Orchard #3,2.38 ± 0.34 ♂♂/trap/night
same,% of pheromone-alone capture (line under HPV + Pheromone value),male codling moth; Orchard #4,96%
same,Average % Change in ♂♂ CM Capture,male codling moth,112%
"CCCCC/C=C\C=C\C(=O)OCC [A, ethyl (2E,4Z)-2,4-decadienoate]",♀♀ ± SEM,codling moth; [1],1.40 ± 0.52
same,♂♂ ± SEM,codling moth; [1],5.88 ± 1.80
same,♀♀ ± SEM,codling moth; [2],1.05 ± 0.49
same,♂♂ ± SEM,codling moth; [2],0.97 ± 0.47
same,♀♀ ± SEM,codling moth; [3],2.76 ± 0.80
same,♂♂ ± SEM,codling moth; [3],1.04 ± 0.41
same,♀♀ ± SEM,codling moth; [4],0.43 ± 0.18
same,♂♂ ± SEM,codling moth; [4],0.78 ± 0.55
same,♀♀ ± SEM,codling moth; [5],4.77 ± 1.34
same,♂♂ ± SEM,codling moth; [5],3.86 ± 1.55
same,♀♀ ± SEM,codling moth; [6],0.84 ± 0.30
same,♂♂ ± SEM,codling moth; [6],1.13 ± 0.63
same,♀♀ ± SEM,"codling moth; 1.0 mg A, Red Septa, High (high population conventional orchard)",4.12 ± 1.37
same,♀♀ ± SEM,codling moth; [7],1.06 ± 0.49
same,♂♂ ± SEM,codling moth; [7],1.38 ± 0.60
same,♀♀ ± SEM,codling moth; [8],5.25 ± 1.33
same,♂♂ ± SEM,codling moth; [8],6.20 ± 1.25
same,♀♀ ± SEM,codling moth; [9],1.18 ± 0.37
same,♂♂ ± SEM,codling moth; [9],2.02 ± 0.72
same,♀♀ ± SEM,codling moth; [10],6.46 ± 1.98
same,♂♂ ± SEM,codling moth; [10],4.40 ± 1.28
same,♀♀ ± SEM,codling moth; [11],0.69 ± 0.26
same,♂♂ ± SEM,codling moth; [11],0.78 ± 0.35
same,♀♀ ± SEM,codling moth; [12],5.77 ± 1.30
same,♂♂ ± SEM,codling moth; [12],3.59 ± 0.92
same,♀♀ ± SEM,codling moth; [13],1.28 ± 0.33
same,♂♂ ± SEM,codling moth; [13],1.29 ± 0.36
same,♀♀ ± SEM,codling moth; [14],7.04 ± 1.90
same,♂♂ ± SEM,codling moth; [14],4.25 ± 0.99
same,♀♀ ± SEM,codling moth; [15],0.57 ± 0.15
same,♂♂ ± SEM,codling moth; [15],0.87 ± 0.41
same,♀♀ ± SEM,codling moth; [16],3.59 ± 1.46
same,♂♂ ± SEM,codling moth; [16],6.14 ± 1.46
same,♀♀ ± SEM,codling moth; [17],2.83 ± 1.07
same,♂♂ ± SEM,codling moth; [17],2.97 ± 0.97
same,♀♀ ± SEM,codling moth; [18],5.43 ± 1.78
same,♂♂ ± SEM,codling moth; [18],2.87 ± 0.88
same,♀♀ ± SEM,codling moth; [19],0.66 ± 0.15
same,♂♂ ± SEM,codling moth; [19],0.94 ± 0.20
same,♂♂ ± SEM (50 mg A),codling moth; [20],10.15 ± 2.04
same,♂♂ ± SEM (under 50 mg A),codling moth; [20],6.18 ± 1.60
same,♂♂ ± SEM (50 mg A),codling moth; [21],1.79 ± 0.69
same,♂♂ ± SEM (under 50 mg A),codling moth; [21],2.04 ± 0.83
same,♂♂ ± SEM (50 mg A),codling moth; [22],7.30 ± 2.00
same,♂♂ ± SEM (under 50 mg A),codling moth; [22],3.63 ± 0.93
same,♂♂ ± SEM (50 mg A),codling moth; [23],0.74 ± 0.24
same,♂♂ ± SEM (under 50 mg A),codling moth; [23],0.57 ± 0.18
C=C1/C=C/[C@H](C(C)C)CC/C(C)=C/CC1 [Germacrene-D],% Change (Ph+HPV/Phxl00) in Male CM Capture,male codling moth,109%
same,Impact of HPV Blend on Pheromone Attractancy to Male CM,male codling moth,No Effect
same,Male CM Capture with Pheromone + HPV Blend: ♂♂/trap/night ± SEM,male codling moth,0.86 ± 0.19 ♂♂/trap/night
